In PubChem BioAssay AID624167 (Sanford-Burnham Center for Chemical Genomics, 2012):
Activity calls are given as the source filed them.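 The calls were made as follows: active = mean IC50 for reducing PEG3 promoter reporter signal at or below a set limit, with IC50 above the limit in both counter screens; inactive = the rest, including counter screen hits.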

How the values were obtained:
[1] = Peg3 promoter luciferase inhibitors, potency, dose response, cell-based, HeLa, CREF/GAPDH counter-screen panel (AID 624167); conditions: CREF/GAPDH counter-screens; GAPDH; mean of runs
GAPDH = experiment: as above; conditions: CREF/GAPDH counter-screens
PEG-3 [2] = target: PEG-3 (UniProt Q6IN02); experiment: as above; conditions: HeLa PEG-Prom luciferase reporter, overnight, CREF/GAPDH counter-screens, mean of runs
Chain of PEG-3 (UniProt Q6IN02) (Q6IN02 whole entry, looked up): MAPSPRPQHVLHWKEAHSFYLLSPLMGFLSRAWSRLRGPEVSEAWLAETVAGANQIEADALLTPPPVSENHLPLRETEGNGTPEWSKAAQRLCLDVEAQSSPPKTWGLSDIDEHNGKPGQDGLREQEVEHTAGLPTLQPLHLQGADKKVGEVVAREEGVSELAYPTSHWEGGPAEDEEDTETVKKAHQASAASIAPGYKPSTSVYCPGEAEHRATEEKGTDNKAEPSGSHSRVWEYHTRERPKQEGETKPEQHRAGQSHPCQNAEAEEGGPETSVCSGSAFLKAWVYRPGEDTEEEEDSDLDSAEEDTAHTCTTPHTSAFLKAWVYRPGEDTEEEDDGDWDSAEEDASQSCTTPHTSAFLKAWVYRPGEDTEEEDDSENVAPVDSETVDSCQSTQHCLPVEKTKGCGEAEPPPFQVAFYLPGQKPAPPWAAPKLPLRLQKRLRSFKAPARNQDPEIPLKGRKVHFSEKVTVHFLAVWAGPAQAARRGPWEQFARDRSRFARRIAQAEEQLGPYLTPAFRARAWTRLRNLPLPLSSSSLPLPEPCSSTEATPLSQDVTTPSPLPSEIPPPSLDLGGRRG

PEG-3 [3] = experiment: as above; conditions: HeLa PEG-Prom luciferase reporter, overnight, CREF/GAPDH counter-screens
Rat fibroblasts (CREF) = experiment: as above; conditions: CREF/GAPDH counter-screens
[4] = run 1, dose range 1, individual replicate IC50 per panel
[5] = run 2, dose range 1, individual replicate IC50 per panel

Structure (SMILES) | IC50 [1] | IC50 (PEG-3 [2]) | IC50 (GAPDH; [4]) | IC50 (GAPDH; [5]) | IC50 (PEG-3 [3]; [4]) | IC50 (PEG-3 [3]; [5]) | IC50 (Rat fibroblasts (CREF); mean of runs) | IC50 (Rat fibroblasts (CREF); [4]) | IC50 (Rat fibroblasts (CREF); [5])
O=C(c1ccco1)N1CCN(C(c2ccccc2Cl)c2nnnn2Cc2cccs2)CC1 (centres undefined) | inactive | inactive | 14.5 µM | 58.7 µM | 3.28 µM | > 100 µM | > 100 µM (inactive) | > 100 µM | > 100 µM
CC1=NOC(=O)/C1=C\c1ccc(-c2ccccc2Br)o1 | 18.3 µM | 10.7 µM | 16.9 µM | 19.7 µM | 11.3 µM | 10.1 µM | 50 µM | 24.6 µM | 75.3 µM
CCCCCCCNC(=O)C1(CC2CC(c3cccc(Br)c3)=NO2)CCNCC1 (centres undefined) | 15.4 µM | 7.4 µM | 13.5 µM | 17.3 µM | 8.05 µM | 6.76 µM | 16.5 µM | 16.1 µM | 16.9 µM
O=C(O)c1ccc(CN2C(=O)c3cccc4c([N+](=O)[O-])ccc(c34)C2=O)cc1 | 22.7 µM | 10.1 µM | 21.9 µM | 23.4 µM | 12.1 µM | 8.2 µM | 31.5 µM | 29.5 µM | 33.4 µM
CS(=O)(=O)Nc1cccc(NC(=O)C2Cc3c(-c4ccccc4)ccnc3O2)c1 (centres undefined) | inactive | 7.38 µM | > 100 µM | 86.7 µM | 7.17 µM | 7.59 µM | > 100 µM (inactive) | > 100 µM | > 100 µM
CN1OC[C@@H]2CN(S(=O)(=O)c3cccc(C(F)(F)F)c3)[C@H](c3ccc(-c4cc5ccccc5o4)cc3)C[C@@H]21 | inactive | 9.9 µM | 44.3 µM | 37.8 µM | 18.7 µM | 1.06 µM | > 100 µM (inactive) | > 100 µM | > 100 µM
O=C(Nc1ccccc1C(=O)Nc1nnc(C(F)(F)F)s1)c1ccccc1 | 7.97 µM | inactive | 2.28 µM | 13.7 µM | 7.01 µM | > 100 µM | > 100 µM (inactive) | > 100 µM | > 100 µM
O=C(Nc1ccc(Cc2ccncc2)cc1)c1ccc([N+](=O)[O-])o1 | inactive | 10.5 µM | 56.6 µM | 63.3 µM | 13.2 µM | 7.69 µM | 14.2 µM | 14 µM | 14.3 µM
COc1cc2nc(CN3CC=C(c4ccccc4)CC3)[nH]c(=O)c2cc1OC | inactive | 6.47 µM | 60.9 µM | 62.2 µM | 7.71 µM | 5.22 µM | > 100 µM (inactive) | > 100 µM | > 100 µM
CCCCCCCn1c(=N)n(CC(=O)c2ccco2)c2ccccc21 | inactive | inactive | 27 µM | 35 µM | 0.395 µM | > 100 µM | 30.7 µM | 29.2 µM | 32.1 µM
CCCCC(=O)NC(c1ccc(OC)cc1)c1ccc2cccnc2c1O (centres undefined) | > 100 µM (inactive) | 8.02 µM | > 100 µM | > 100 µM | 8.04 µM | 7.99 µM | > 100 µM (inactive) | > 100 µM | > 100 µM
CC1=CC2C(C(O)CC3(C)C2CC(C)C32OCOC23COCO3)C2(C)C/C(=C\O)C(=O)C=C12 (centres undefined) | 9.16 µM | 6.07 µM | 7.69 µM | 10.6 µM | 7.13 µM | 5.01 µM | 8.5 µM | 7.69 µM | 9.3 µM
CCCC(=O)NC(c1ccc(C)cc1)c1ccc2cccnc2c1O (centres undefined) | inactive | 5.94 µM | > 100 µM | 74.7 µM | 4.69 µM | 7.19 µM | > 100 µM (inactive) | > 100 µM | > 100 µM
C=Cc1cc(OC)c2c(c1)c(=O)oc1c2cc(OC)c2c(O)ccc(C3OC(C)C(O)C(C)(O)C3O)c21 (centres undefined) | inactive | 2.56 µM | > 100 µM | 64.1 µM | 2.17 µM | 2.96 µM | > 100 µM (inactive) | > 100 µM | > 100 µM
O=C(O)c1ccc(N/N=C/c2ccc(OC(=O)c3cccc(Cl)c3)cc2)cc1 | 3.23 µM | 9.61 µM | 0.554 µM | 5.92 µM | 6.27 µM | 12.9 µM | > 100 µM (inactive) | > 100 µM | > 100 µM
C(=N\Nc1ccc2ccccc2n1)/c1ccc2c(c1)OCCO2 | 3.75 µM | 6.99 µM | 6.78 µM | 0.719 µM | 5.86 µM | 8.13 µM | 51.2 µM (inactive) | 2.43 µM | > 100 µM

Continued by falling IC50 (PEG-3 [2]), values first:

IC50 [1] | IC50 (PEG-3 [2]) | Structure (SMILES) | IC50 (GAPDH; [4]) | IC50 (GAPDH; [5]) | IC50 (PEG-3 [3]; [4]) | IC50 (PEG-3 [3]; [5]) | IC50 (Rat fibroblasts (CREF); mean of runs) | IC50 (Rat fibroblasts (CREF); [4]) | IC50 (Rat fibroblasts (CREF); [5])
inactive | 5.6 µM | CC(=O)c1cccc(-c2ccnc3c2CC(C(=O)Nc2cccc(NS(C)(=O)=O)c2)O3)c1 (centres undefined) | > 100 µM | 90.3 µM | 6.56 µM | 4.65 µM | > 100 µM (inactive) | > 100 µM | > 100 µM
inactive | 5.47 µM | O=C(N/N=C/c1sc(N2CCOCC2)nc1-c1ccccc1)c1cccc(S(=O)(=O)N2CCCC2)c1 | 18.9 µM | 42 µM | 5.9 µM | 5.05 µM | 54 µM (inactive) | > 100 µM | 8 µM
8.31 µM | 4.3 µM | CN(C)c1ccc(C=c2c3ccccc3n3c2cc(-c2ccccc2)[n+]3C)cc1 | 9.4 µM | 7.23 µM | 7.06 µM | 1.54 µM | 29.4 µM | 27.5 µM | 31.3 µM
5.18 µM | 3.93 µM | Cc1oc(-c2ccc3c(c2)OCCO3)cc1C(=O)O | 4.06 µM | 6.29 µM | 3.12 µM | 4.73 µM | 34.2 µM | 31.2 µM | 37.3 µM
> 100 µM (inactive) | 3.6 µM | O=C(NNC(=O)c1cccnc1SCc1cccc([N+](=O)[O-])c1)c1ccccn1 | > 100 µM | > 100 µM | 2.76 µM | 4.45 µM | 31.4 µM | 5.66 µM | 57.1 µM
> 100 µM (inactive) | 3.35 µM | O=C(N/N=C/c1c(O)ccc2ccccc12)c1ccc(CO)nc1 | > 100 µM | > 100 µM | 3.98 µM | 2.72 µM | 41.7 µM | 31 µM | 52.5 µM
inactive | 3.29 µM | CCCC(=O)NC(c1ccc(Cl)cc1)c1ccc2cccnc2c1O (centres undefined) | 27.5 µM | 58.5 µM | 2.29 µM | 4.28 µM | > 100 µM (inactive) | > 100 µM | > 100 µM
> 100 µM (inactive) | 2.9 µM | COc1cc(C(=O)N/N=C(\c2ccccc2)c2ccccn2)cc(OC)c1OC | > 100 µM | > 100 µM | 3.09 µM | 2.71 µM | 58.4 µM (inactive) | 44.9 µM | 72 µM
> 100 µM (inactive) | 2.05 µM | CCN(CC)S(=O)(=O)c1cccc(C(=O)N/N=C(\C)c2ccc(O)cc2O)c1 | > 100 µM | > 100 µM | 2.77 µM | 1.33 µM | 74.1 µM (inactive) | > 100 µM | 48.2 µM
20.9 µM | 1.49 µM | Cc1cc(C)c2sc(NNC(=O)c3ccc(S(=O)(=O)N4CCc5ccccc5C4)cc3)nc2c1 | 10.4 µM | 31.5 µM | 0.939 µM | 2.04 µM | > 100 µM (inactive) | > 100 µM | > 100 µM
inactive | 1.38 µM | CCCC(=O)NC(c1ccc(C(C)C)cc1)c1ccc2cccnc2c1O (centres undefined) | 26.2 µM | 85.1 µM | 1.94 µM | 0.814 µM | > 100 µM (inactive) | > 100 µM | > 100 µM
1.38 µM | 1.31 µM | O=C(O)c1ccc(N/N=C/c2ccc3nccnc3c2)cc1 | 1.36 µM | 1.41 µM | 1.26 µM | 1.36 µM | > 100 µM (inactive) | > 100 µM | > 100 µM
1.01 µM | 1.16 µM | CC1CC(C)C(=O)C(C(CC2CC(=O)NC(=O)C2)OC(=O)CC(=O)c2ccccc2)C1 (centres undefined) | 0.605 µM | 1.42 µM | 1.78 µM | 0.549 µM | > 100 µM (inactive) | > 100 µM | > 100 µM
2.86 µM | 0.703 µM | NC(C(=O)O)C1ON=C(Cl)C1O (centres undefined) | 0.927 µM | 4.8 µM | 0.639 µM | 0.767 µM | > 100 µM (inactive) | > 100 µM | > 100 µM
> 100 µM (inactive) | 0.452 µM | CN(C(=O)COC(=O)/C=C/c1cccc([N+](=O)[O-])c1)C1CCS(=O)(=O)C1 (centres undefined) | > 100 µM | > 100 µM | 0.452 µM | 0.452 µM | > 100 µM (inactive) | > 100 µM | > 100 µM
